One series deals with adult S. mansoni. The experiment in a line: In vitro treatment of adult S. mansoni couples, visual evaluation by microscope. Also on record: species or system Schistosoma mansoni. As for the experimental part:
Compounds 2, 18 and 41 were tested by Prof. Dr. Grevelding, Parasitology, Veterinary Medicine, University of Gieβen, also in the parasite Schistosoma mansoni. […] Each test was performed with 3 groups of 10 worms each. Remarkable was that different effects on the worms with respect to morphological alterations could be observed. […] Exemplarily shown in FIGS. 1 and 2 is an image of a control assay and an image of trematodes after 48 hours of incubation with compound 18.
Each one of the three groups (one group per well) comprised 10 pairs of adult S. mansoni were incubated with the substance to be tested for 24 h. As control served three groups which were incubated with medium (M199) and three groups which were incubated with medium and DMSO as solvent of the test substances. Evaluation was done visually using a microscope.
In a second experimental setting, again three groups each (one group per well) with 8 pairs of adult S. mansoni each were incubated with the compound to be tested, however for 48 h in this experiment. As control served three groups which were either incubated with medium (M199) or medium and DMSO as solvent of the test substances. Evaluation was done visually using a microscope.

Series [1] relates to Trypanosoma brucei brucei S427. The experiment in a line: In vitro efficacy against Trypanosoma brucei. It is filed as cell-based. As for the experimental part:
Compounds 18 and 41 were assessed at the London School of Hygiene and Tropical Medicine in vitro with respect to their efficacy against the parasite Trypanosoma brucei brucei […].

Series [2] deals with P. falciparum strain 3D7-Netherlands. The experiment in a line: In vitro IC50, 3H-hypoxanthine incorporation, P. falciparum 3D7. Format: cell-based, Plasmodium falciparum. Particulars: Plasmodium falciparum.
The nature of a further series: Cytotoxicity HeLa. Particulars: human, HeLa cells.
The next series concerns L929. The experiment in a line: Antiproliferative activity L929. Format: cell-based. Particulars: Mus musculus, read-out: IC50 [μg/ml] Antiproliferative activity L929.
The subject of a further series is K562. The experiment in a line: Antiproliferative activity K562. Format: cell-based. Particulars: Homo sapiens, read-out: IC50 [μg/ml] Antiproliferative activity K562.
Series [3] relates to Plasmodium berghei GFP MRA-865. The experiment in a line: Plasmodium berghei infection in the mouse model (in vivo). Particulars: for Activity (%): parasitemia day 4 vs untreated controls.
The subject of series [4] is Plasmodium falciparum strain K1. The experiment in a line: In vitro IC50, 3H-hypoxanthine incorporation, P. falciparum K1. Particulars: chloroquine-resistant Plasmodium falciparum strain K1. It is filed as cell-based.
Setting [5] is: 24 hours, 100 μM, 3 groups of 10 pairs.
The mark [6] stands for this setting: 48 hours, 20 μM, 3 groups of 8 pairs.
[7] abbreviates: 48 hours, 100 μM, 3 groups of 8 pairs.
Setting [8] is: 3D7, read-out: IC50 [ng/ml] P.f.(3D7).
Where [9] appears, read: P. falciparum strain 3D7, read-out: IC50 [nM] P.f.(3D7).

Converted amounts (≈) assume the structure as drawn. “And” between values parts separate entries of the source, which are not always exact repeats. Equal entries are not always repeated. “Also recorded” adds a separate entry of the source. Where two headings read alike, the source gives them in different places.

As for `COc1ccc2c(c1)CCC1C2CC[C@@]2(C)C1CC[C@H]2NCc1cc2ccccc2cc1O` (stereo partly drawn) [Compound 41, 17α-[(3-Hydroxy-naphth-2-yl)-methylamino]-3-methoxy-estra-1,3,5(10)-triene], the “morphological alterations of the worms” value in the series with adult S. mansoni is “dorsal bending”. Moreover, the egg production entry with adult S. mansoni (24 hours, 20 μM) is recorded as “Almost no eggs could be detected; also recorded: Almost no eggs were detectable”; in the series with adult S. mansoni (24 hours, 100 μM), “Almost no eggs could be detected”; with adult S. mansoni (48 hours, 20 μM), “No eggs were produced”; with adult S. mansoni (48 hours, 100 μM) it was “No eggs were detectable”. In addition, the motility / vitality entry in the series with adult S. mansoni (24 hours, 20 μM) is “Males barely moved and showed only twitching; also recorded: Trematodes moved only slightly and with twitching movements”; in the series on adult S. mansoni (24 hours, 100 μM), “Males showed almost no motility”; with adult S. mansoni (48 hours, 20 μM), “Single trematodes showed slightly twitching movements, while the rest was non-motile”; in the series on adult S. mansoni (48 hours, 100 μM), “Some of the worms were already dead, while others were dying”. Further, the figures for the couples detectable entry with adult S. mansoni (setting [5]), in the series on adult S. mansoni (setting [6]) and in the series with adult S. mansoni (setting [7]) were “only in one of the groups a couple was detectable”, “no couples could be observed in any of the groups” and “no couples could be observed in any of the groups”, respectively. The IC50 was determined as 3580 nM in series [1], 1.9 ng/mL in series [2] (setting [8]) and 4.4 nM in series [2] (setting [9]).

Consider `COc1ccc2c(c1)CCC1C2CC[C@@]2(C)C1CC[C@@H]2NCc1ccccc1O` (stereo partly drawn) [Compound 1, 17β-(2-Hydroxyphenyl-methylamino)-3-methoxy-estra-1,3,5(10)-triene], for which the IC50 is 11 µM and 4.3 µg/mL in “Cytotoxicity HeLa”; 2.2 µg/mL (≈ 5.62 µM) with L929; 0.8 µg/mL (≈ 2.04 µM) with K562; 50 nM in series [2] (setting [9]); 19.8 ng/mL in series [2] (P. falciparum strain 3D7, read-out: IC50 [ng/ml] P.f.(3D7)); 73 nM in series [4]. For the same compound, the “life span in words” value in series [3] (all dosages and routes of administration tested) is “considerably extended the life span”. The “MSD (days)” value in series [3] (oral 3 × 100 mg/kg) is 16.3 (n = 3) days; in series [3] (sc 3 × 10 mg/kg) it was 10.2 (n = 3) days; in series [3] (sc 3 × 30 mg/kg) it was 15 (n = 3) days. For the same compound, the “Activity (%)” value in series [3] (oral 3 × 100 mg/kg) is on record as 99%; in series [3] (sc 3 × 10 mg/kg) it was 47%; in series [3] (sc 3 × 30 mg/kg), 94%.

With `COc1ccc2c(c1)CCC1C2CC[C@@]2(C)C1CC[C@@H]2NCc1cc2ccccc2cc1O` (stereo partly drawn) [Compound 18, 17β-[(3-Hydroxynaphth-2-yl)-methylamino]-3-methoxy-estra-1,3,5(10)-triene], the “morphological alterations of the worms” value in the series on adult S. mansoni is recorded as “ventral bending”. Besides, the egg production result with adult S. mansoni (24 hours, 20 μM) is “Almost no eggs were detectable”; with adult S. mansoni (24 hours, 100 μM), “Almost no eggs were detectable”; with adult S. mansoni (48 hours, 20 μM) it was “No eggs were detectable”; in the series on adult S. mansoni (48 hours, 100 μM), “No eggs were detectable”. The motility / vitality entry was “Males barely moved and showed only twitching” in the series on adult S. mansoni (24 hours, 20 μM); “The trematodes rarely showed slightly twitching movements” in the series with adult S. mansoni (24 hours, 100 μM); “all worms were dead” in the series on adult S. mansoni (48 hours, 20 μM); “all worms were dead” with adult S. mansoni (48 hours, 100 μM). Also, the couples detectable result with adult S. mansoni (24 hours, 20 μM, 3 groups of 10 pairs) was “no couples could be detected”; in the series with adult S. mansoni (setting [5]) it was “no couples could be detected”; in the series with adult S. mansoni (setting [6]) it was “no couples could be observed in any of the groups”; in the series with adult S. mansoni (setting [7]), “no couples could be observed in any of the groups”. Moreover, the IC50 in series [1] worked out at 930 nM; in series [2] (setting [8]), 3.1 ng/mL; in series [2] (setting [9]), 7 nM.
